Literature values as cited in patent US11654127B2, “Composition for use in the prevention and/or treatment of Oncologic Treatment Induced Orogastrointestinal Mucositis” (Mucosa Innovations, S.L., priority 2017, dated 2023).

Tested on: OTIOM
Settings: saliva stimulant

**Q.** With CC[C@@H]1C(=O)OC[C@@H]1Cc1cncn1C [pilocarpine] as the molecule, how does the “effect in preventing or treating OTIOM” value read?
**A.** no beneficial effect
